According to US9617246B2, “Thioether-piperidinyl orexin receptor antagonists” (MERCK SHARP & DOHME CORP., priority 2013, dated 2017):

Key:
[1] = biological target: human orexin-2 receptor (Homo sapiens (Human), UniProt O43614); assay: FLIPR Ca2+ Flux Assay, orexin-2 receptor; format: cell-based; conditions: CHO cells, agonist 70 pM Ala-6,12 human orexin-A; read-out: hOX2R FLIPR IC50
Method: The utility of the compounds in accordance with the present invention as orexin receptor OX1R and/or OX2R antagonists may be readily determined without undue experimentation by methodology well known in the art, including the “FLIPR Ca^2+ Flux Assay” (Okumura et al., Biochem. Biophys. Res. Comm. 280:976-981, 2001). In a typical experiment the OX1 and OX2 receptor antagonistic activity of the compounds of the present invention was determined in accordance with the following experimental method. For intracellular calcium measurements, Chinese hamster ovary (CHO) cells expressing the rat orexin-1 receptor or the human orexin-2 receptor, are grown in Iscove's modified DMEM containing 2 mM L-glutamine, […], 1% hypoxanthine-thymidine supplement, 100 U/ml penicillin, 100 μg/ml streptomycin and 10% heat-inactivated fetal calf serum (FCS). The cells are seeded at 20,000 cells/well into Becton-Dickinson black 384-well clear bottom sterile plates coated with poly-D-lysine. All reagents were from GIBCO-Invitrogen Corp. The seeded plates are incubated overnight at 37° C. and 5% CO2. Ala-6,12 human orexin-A as the agonist is prepared as a 1 mM stock solution in 1% bovine serum albumin (BSA) and diluted in assay buffer (HBSS containing 20 mM HEPES, 0.1% BSA and 2.5 mM probenecid, pH7.4) for use in the assay at a final concentration of 70 pM. Test compounds are prepared as 10 mM stock solution in DMSO, then diluted in 384-well plates, first in DMSO, then assay buffer. On the day of the assay, cells are washed 3 times with 100 μl assay buffer and then incubated for 60 min (37° C., 5% CO2) in 60 μl assay buffer containing 1 μM Fluo-4AM ester, 0.02% pluronic acid, and 1% BSA. The dye loading solution is then aspirated and cells are washed 3 times with 100 μl assay buffer. 30 μl of that same buffer is left in each well. Within the Fluorescent Imaging Plate Reader (FLIPR, Molecular Devices), test compounds are added to the plate in a volume of 25 μl, incubated for 5 min and finally 25 μl of agonist is added. Fluorescence is measured for each well at 1 second intervals for 5 minutes and the height of each fluorescence peak is compared to the height of the fluorescence peak induced by 70 pM Ala-6,12 orexin-A with buffer in place of antagonist. For each antagonist, IC50 value (the concentration of compound needed to inhibit 50% of the agonist response) is determined. Alternatively, compound potency can be assessed by a radioligand binding assay (described in Bergman et. al. Bioorg. Med. Chem. Lett. 2008, 18, 1425-1430) in which the inhibition constant (Ki) is determined in membranes prepared from CHO cells expressing either the OX1 or OX2 receptor. The intrinsic orexin receptor antagonist activity of a compound which may be used in the present invention may be determined by these assays.

[2] = biological target: hOX1R (Homo sapiens, UniProt O43613); assay: FLIPR Ca2+ Flux Assay, orexin-1 receptor; format: cell-based; conditions: CHO cells, agonist 70 pM Ala-6,12 human orexin-A

human orexin-2 receptor, sequence (O43614 whole entry): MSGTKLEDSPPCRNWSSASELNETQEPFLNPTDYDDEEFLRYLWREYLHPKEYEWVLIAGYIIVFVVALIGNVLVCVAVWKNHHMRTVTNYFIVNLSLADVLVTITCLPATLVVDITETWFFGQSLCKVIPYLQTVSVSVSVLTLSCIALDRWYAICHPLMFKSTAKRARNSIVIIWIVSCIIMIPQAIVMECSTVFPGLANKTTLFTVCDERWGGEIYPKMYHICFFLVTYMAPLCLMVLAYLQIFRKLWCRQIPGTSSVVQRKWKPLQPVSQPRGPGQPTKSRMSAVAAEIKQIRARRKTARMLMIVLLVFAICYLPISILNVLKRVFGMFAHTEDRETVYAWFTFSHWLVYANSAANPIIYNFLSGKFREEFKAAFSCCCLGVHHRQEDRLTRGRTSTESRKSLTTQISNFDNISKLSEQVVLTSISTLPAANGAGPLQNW

SMILES	IC50 [1] [nM]	IC50 [2] [nM]
C[C@@H]1CC[C@@H](Sc2cc(C#N)ccn2)CN1C(=O)c1ccccc1N1CCCC1 [Example 39, 2-({(3R,6R)-6-methyl-1-[(2-pyrrolidin-1-ylphenyl)carbonyl]piperidin-3-yl}sulfanyl)pyridine-4-carbonitrile]	103	10000
Cc1ccnc(S[C@@H]2CC[C@@H](C)N(C(=O)c3ccccc3-n3nccn3)C2)c1C#N [Example 10, 4-methyl-2-{[(3R,6R)-6-methyl-1-{[2-(2H-1,2,3-triazol-2-yl)phenyl]carbonyl}piperidin-3-yl]sulfanyl}pyridine-3-carbonitrile]	24.2	634
C[C@@H]1CC[C@@H](Sc2cc(C#N)ccn2)CN1C(=O)c1ccsc1-n1nccn1 [Example 44, 2-{[(3R,6R)-6-Methyl-1-{[2-(2H-1,2,3-triazol-2-yl)thiophen-3-yl]carbonyl}piperidin-3-yl]sulfanyl}pyridine-4-carbonitrile]	18.8	3920
C[C@@H]1CC[C@@H](Sc2ccc(C(F)(F)F)cn2)CN1C(=O)c1ccccc1-n1nccn1 [Example 8, 2-{[(3R,6R)-6-methyl-1-{[2-(2H-1,2,3-triazol-2-yl)phenyl]carbonyl}piperidin-3-yl]sulfanyl}-5-(trifluoromethyl)pyridine]	322	596
Cc1cc(C#N)cc(S[C@@H]2CC[C@@H](C)N(C(=O)c3ccccc3-n3nccn3)C2)n1 [Example 2, 2-methyl-6-{[(3R,6R)-6-methyl-1-{[2-(2H-1,2,3-triazol-2-yl)phenyl]carbonyl}piperidin-3-yl]sulfanyl}pyridine-4-carbonitrile]	82.9	1540
C[C@@H]1CC[C@@H](Sc2cc(C#N)ccn2)CN1C(=O)c1ccsc1-c1ncccn1 [Example 40, 2-({(3R,6R)-6-Methyl-1-[(2-pyrimidin-2-ylthiophen-3-yl)carbonyl]piperidin-3-yl}sulfanyl)pyridine-4-carbonitrile]	19	2240
COc1ccc(C(=O)N2C[C@H](Sc3cc(C#N)ccn3)CC[C@H]2C)c(-c2ncccn2)n1 [Example 43, 2-({(3R,6R)-1-[(6-methoxy-2-pyrimidin-2-ylpyridin-3-yl)carbonyl]-6-methylpiperidin-3-yl}sulfanyl)pyridine-4-carbonitrile]	864	10000
C[C@@H]1CC[C@@H](Sc2cc(C#N)ccn2)CN1C(=O)c1cccc(F)c1-n1nccn1 [Example 19, 2-{[(3R,6R)-1-{[3-fluoro-2-(2H-1,2,3-triazol-2-yl)phenyl]carbonyl}-6-methylpiperidin-3-yl]sulfanyl}pyridine-4-carbonitrile]	20.8	2550
C[C@@H]1CC[C@@H](Sc2cc(C#N)ccn2)CN1C(=O)c1ccccc1-n1nccn1 [Example 9, 2-{[(3R,6R)-6-methyl-1-{[2-(2H-1,2,3-triazol-2-yl)phenyl]carbonyl}piperidin-3-yl]sulfanyl}pyridine-4-carbonitrile]	13.5	1410
C[C@@H]1CC[C@@H](Sc2cc(C#N)ccn2)CN1C(=O)c1ccc(Cl)cc1-n1nccn1 [Example 20, 2-{[(3R,6R)-1-{[4-chloro-2-(2H-1,2,3-triazol-2-yl)phenyl]carbonyl}-6-methylpiperidin-3-yl]sulfanyl}pyridine-4-carbonitrile]	15.5	1030
Cc1ccc(C(=O)N2C[C@H](Sc3cc(C#N)ccn3)CC[C@H]2C)c(-n2nccn2)c1 [Example 22, 2-{[(3R,6R)-6-methyl-1-{[4-methyl-2-(2H-1,2,3-triazol-2-yl)phenyl]carbonyl}piperidin-3-yl]sulfanyl}pyridine-4-carbonitrile]	49	1500
Cc1ccnc(S[C@@H]2CC[C@@H](C)N(C(=O)c3ccccc3-n3nccn3)C2)c1 [Example 11, 4-methyl-2-{[(3R,6R)-6-methyl-1-{[2-(2H-1,2,3-triazol-2-yl)phenyl]carbonyl}piperidin-3-yl]sulfanyl}pyridine]	20	440
CSc1ccccc1C(=O)N1C[C@H](Sc2cc(C#N)ccn2)CC[C@H]1C [Example 34, 2-{[(3R,6R)-6-methyl-1-{[2-(methylsulfanyl)phenyl]carbonyl}piperidin-3-yl]sulfanyl}pyridine-4-carbonitrile]	75.4	8720
C[C@@H]1CC[C@@H](Sc2ncccc2C(=O)O)CN1C(=O)c1ccccc1-n1nccn1 [Example 48, 2-{[(3R,6R)-6-Methyl-1-{[2-(2H-1,2,3-triazol-2-yl)phenyl]carbonyl}piperidin-3-yl]sulfanyl}pyridine-3-carboxylic acid]	626	6540
C[C@@H]1CC[C@@H](Sc2cc(C#N)ccn2)CN1C(=O)c1ccccc1C1CC1 [Example 30, 2-({(3R,6R)-1-[(2-cyclopropylphenyl)carbonyl]-6-methylpiperidin-3-yl}sulfanyl)pyridine-4-carbonitrile]	18.3	4070
